Assay results: ChEMBL document CHEMBL1139693, “Structure-based design of a novel thiazolone scaffold as HCV NS5B polymerase allosteric inhibitors” (Bioorg Med Chem Lett, 2006)

Assay: Inhibition of HCV NS5B polymerase
Design: species or system Hepacivirus hominis

IC50: 2 µM
Structure (SMILES): Cc1ccc(S(=O)(=O)NC2=NC(=O)/C(=C/c3ccc(C)o3)S2)cc1
